1 molecule from US20060183794A1, “Drug composition containing nf-kb inhibitor” (priority 2002, published 2006) can be followed below.

In series [1] the test system is cells of multiple myeloma (MM) patients. Description: Hoechst staining apoptosis assay, cells of multiple myeloma patients. In kind it is cell-based, human. Conditions: 10 μg/ml, 72 hours. Here is the method:
Further, to investigate apoptosis induction of cells of multiple myeloma (MM) patients by DHMEQ, cells of multiple myeloma (MM) patients were incubated for 72 hours at a concentration of 10 μg/ml and the apoptosis was examined by observing nuclear condensation or fragmentation with a fluorescence microscope, using Hoechst staining.

The subject of series [2] is ATL cell line MT-2 in SCID mice. Nature of the series: Survival of SCID mice intraperitoneally inoculated with ATL cell line MT-2. Format: in vivo. The following applies: for mice survived: p<0.05.
Description: First, five-week-old male SCID mice (CB17-scid/scid; SLC Japan, Inc (Shizuoka, Japan)) were treated for 3 to 5 days with 1 mg of IL-2 receptor antibody (TM-β1; J. Immunol. 147: 2222-2228, 1991), and intraperitoneally inoculated with the ATL cell line MT-2 (3 to 4×10^7 cells). Subsequently, the mice were intraperitoneally given 4 mg/kg bw or 12 mg/kg bw DHMEQ dissolved in 5% carboxymethyl cellulose (CMC; Sigma) solution three times a week for one month, and their survival probability and status were observed. […] The survival curve was calculated by the Kaplan-Mayer method, and the statistically significant difference was determined by the Cox-Mantel test.
The test system of series [3] is cachexia symptoms induced by JCA-1 cells. Nature of the series: Cancer cachexia model, JCA-1 tumor-bearing BALB/c nude mice. In kind it is in vivo. Here is the method: To assay the effect of the compounds represented by the general formula (1) or pharmacologically acceptable salts thereof on cachexia, cachexia-induced BALB/c nude mice were used as model mice of human patients with cachexia. Here, cachexia symptoms were induced using the androgen-insensitive human prostatic cancer cell-line JCA-1.
To measure the effect of DHMEQ on cachexia symptoms, the cachexia model mice were prepared using the aforementioned nude mice. JCA-1 cells (1×10^7 cells) suspended in 100 μl of PBS were inoculated subcutaneously into the flank of six-old-week nude mice (hereafter called tumor-bearing mice). Fourteen days after the inoculation, when the tumors had reached palpable sizes, the inoculated mice were randomly assigned to three groups: group 2 (Gr2; n=13), given DHMEQ (8 mg/kg bw) every day; group 3 (Gr3; n=13), given DMSO every day; and group 4 (Gr4; n=11), given nothing. Group 1 (Gr1; n=14), consisting of normal nude mice not inoculated with JCA-1 cells (hereinafter called “normal mice”), was also included. From the next day of administration of DHMEQ, the body weights (FIG. 20) and the tumor weights (FIG. 21) calculated from the tumor diameters were measured every other day. On day 26 after the start of administration of DHMEQ, all mice were dissected and the tumor weights (FIG. 22), the weights of fat around the testis (FIG. 23) the gastrocnemius weights (FIG. 24), and the hematocrits (FIG. 25; the ratio of the volume of blood cell components to that of whole blood, which can be measured by blood centrifugation) were measured. The measured values were summed up for every group.

Series [4] concerns the target T1, p65 subunit of NF-κB (Homo sapiens, UniProt Q04206).
T1 construct: endogenous in cells; host or cells: ATL cell lines MT-1 and TL-Om1
Description: Confocal microscopy of p65 distribution in ATL cell lines. In kind it is cell-based. The following applies: MT-1 and TL-Om1; 10 μg/ml DHM2EQ, 24 hours. As to the method: It is thought that DHM2EQ inhibits nuclear translocation of the p65 subunit of NF-κB. The ATL cell lines (MT-1 and TL-Om1) were treated with 10 μg/ml DHM2EQ for 24 hours and distribution of p65 was examined with a confocal microscope, using fluorescence-labeled anti-p65 antibody. The cell lines not treated with DHM2EQ were also examined in the same manner. In the figure, “−” and “+” indicate the results of DHM2EQ untreatment and DHM2EQ treatment, respectively.

For series [5], the target named is NF-κB (Homo sapiens, UniProt P19838+Q04206). Nature of the series: p6kb-Luc luciferase reporter assay of NF-κB activity in JCA-1 cells. Conditions: 2.5, 5, 10, 20, 40 μg/ml DHMEQ, 8 hours. More on the design: endogenous in cells. In kind it is cell-based. Here is the method: To measure the inhibitory effect of DHMEQ on activity of NF-κB, the activity of NF-κB on DHMEQ at various concentrations was measured using transcriptional activity of NF-κB as an index. As the reporter, the vector construct (p6kb-Luc), containing a luciferase gene as the reporter in the downstream of the promoter containing six tandem copies of the NF-κB binding sequence, was used. This reporter plasmid was transfected into JCA-1 cells using GenePOETER™ (Gene Therapy Systems). Fourteen hours after the transfection, 2.5, 5, 10, 20, and 40 μg/ml DHMEQ was added to the cell medium, followed by further incubation for 8 hours. Subsequently, cells were recovered and luciferase activity was measured. […] Each luciferase activity was measured and the absolute value was presented by standardization. All experiments were conducted independently three times, producing averages and standard deviations.
Sequence of NF-κB (Q04206 whole entry): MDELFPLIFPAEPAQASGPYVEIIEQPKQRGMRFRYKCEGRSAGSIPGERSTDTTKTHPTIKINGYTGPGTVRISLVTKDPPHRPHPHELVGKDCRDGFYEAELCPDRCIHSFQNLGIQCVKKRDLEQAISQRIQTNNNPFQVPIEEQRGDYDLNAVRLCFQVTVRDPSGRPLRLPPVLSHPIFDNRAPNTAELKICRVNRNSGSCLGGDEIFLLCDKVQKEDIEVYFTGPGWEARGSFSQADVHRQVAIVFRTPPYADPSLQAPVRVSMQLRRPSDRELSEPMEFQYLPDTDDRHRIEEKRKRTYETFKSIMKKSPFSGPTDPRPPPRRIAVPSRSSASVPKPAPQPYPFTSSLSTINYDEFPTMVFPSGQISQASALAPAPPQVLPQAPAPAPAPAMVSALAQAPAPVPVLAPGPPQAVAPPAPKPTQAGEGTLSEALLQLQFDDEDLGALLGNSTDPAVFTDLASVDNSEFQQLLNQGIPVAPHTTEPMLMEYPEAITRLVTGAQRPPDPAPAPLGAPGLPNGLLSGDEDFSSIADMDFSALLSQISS
Sequence of NF-κB (P19838 1-433 limits assumed): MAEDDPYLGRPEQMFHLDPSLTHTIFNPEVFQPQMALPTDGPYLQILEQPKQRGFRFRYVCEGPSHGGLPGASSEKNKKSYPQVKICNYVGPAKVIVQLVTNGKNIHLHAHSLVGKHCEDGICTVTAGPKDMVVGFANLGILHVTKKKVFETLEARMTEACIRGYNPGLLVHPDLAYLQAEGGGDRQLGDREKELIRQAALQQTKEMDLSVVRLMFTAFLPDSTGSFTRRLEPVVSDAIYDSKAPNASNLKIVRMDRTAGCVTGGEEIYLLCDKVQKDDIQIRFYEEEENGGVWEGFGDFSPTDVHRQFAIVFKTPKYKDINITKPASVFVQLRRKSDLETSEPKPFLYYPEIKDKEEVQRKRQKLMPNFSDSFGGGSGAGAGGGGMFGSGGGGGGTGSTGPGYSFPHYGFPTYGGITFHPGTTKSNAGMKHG

Series [6] deals with human pancreatic cancer cell line Colo357. Nature of the series: Annexin-V/PI flow cytometry apoptosis assay, Colo357 with irradiation. Format: cell-based. Here is the method:
Next, the apoptosis-enhancing effect of DHMEQ on irradiated tumor cells was investigated. The human pancreatic cancer cell line Colo357 given 10 μg/ml DHMEQ for six hours, the human pancreatic cancer cell line Colo357 irradiated with 20 Gy radiation and then incubated for 6 hours, and the human pancreatic cancer cell line Colo357 given 10 μg/ml DHMEQ for six hours immediately after irradiation with 20 Gy radiation were subjected to Annexin-V/propidium iodide (PI) double staining. The apoptotic cells (lower right) were measured by flow cytometry and the ratio was calculated. […] On the other hand, in the cells to which DHMEQ was administered after irradiation with 20 Gy radiation, the apoptosis-inducing ability is enhanced three-fold, as compared with the cells only irradiated with 20 Gy radiation

The mark [7] stands for this setting: 8 mg/kg bw every day, day 26, Gr2 vs Gr3 and Gr4.

T1 sequence (Q04206 whole entry): as the sequence (Q04206 whole entry) above

For the molecule `O=C(NC1=CC(=O)C2OC2C1O)c1ccccc1O` (centres unmarked) [DHMEQ, 5,6-epoxy-4-hydroxy-3-salicyloylamino-2-cyclohexenone], the “apoptosis (Hoechst staining)” value in series [1] is reported as “induces apoptosis”. In addition, the mice survived in series [2] (4 mg/kg i.p. three times a week for one month, about 200 days, control all 5 dead) is listed as 4 out of 6. Further, in series [2] (12 mg/kg i.p. three times a week for one month, about 30 days, control 4 out of 5 dead), the mice survived is on record as 5 out of 6. For the same molecule, the “toxicity, anomalies in body weights etc.” value in series [2] (SCID mice, up to three volumes of 4 mg/kg) was “toxicity was not noted”. In addition, the body weight reduction result in series [3] (8 mg/kg bw every day (Gr2) vs Gr3 and Gr4) is “significantly suppressed”. In series [3] (8 mg/kg bw every day, day 26), the “influence on internal organ weights” value is “No unfavorable influence” and the “regressive effect on tumors (tumor weight)” value was “no regressive effect”. In series [3] (setting [7]), the gastrocnemius weight entry is on record as “weight reduction was significantly suppressed”, the hematocrit entry is on record as “significant tendency of recovery” and the “weight of fat around the testis” value is recorded as “weight reduction was significantly suppressed”. In series [4], the “nuclear translocation of p65” value was “inhibited”. Moreover, the “NF-κB activity (luciferase) in JCA-1 cells” value in series [5] is reported as “concentration-dependently inhibits”. Moreover, the “apoptosis-inducing ability versus irradiation only” value in series [6] (10 μg/ml six hours after 20 Gy radiation) is “three-fold”. The “apoptosis induction by DHMEQ alone” value in series [6] (10 μg/ml, six hours) is “apoptosis was not induced”.
